Assay results from the NIST ThermoML archive (doi:10.1007/s10765-009-0579-1).
Numbers after ± are expanded uncertainties.

Test: xn = mol fraction of the nth substance listed
Details: 423.15 K, Gas; for viscosity: Oscillating disk viscometry; for mass density: Pycnometric method

CC(F)(F)Cl [1-chloro-1,1-difluoroethane] + FC(F)Cl
viscosity (102.1 kPa, x2 = 0.2615): 0.01579 ± 0.00052 mPa·s | mass density (102.1 kPa, x2 = 0.2615): 2.829 ± 0.29 kg/m3 | viscosity (102.2 kPa, x2 = 0.5169): 0.01631 ± 0.00053 mPa·s | mass density (102.2 kPa, x2 = 0.5169): 2.723 ± 0.29 kg/m3 | viscosity (346.2 kPa, x2 = 0.5169): 0.01634 ± 0.00053 mPa·s | mass density (346.2 kPa, x2 = 0.5169): 9.354 ± 0.29 kg/m3 | viscosity (390.7 kPa, x2 = 0.7502): 0.01687 ± 0.00055 mPa·s | mass density (390.7 kPa, x2 = 0.7502): 10.18 ± 0.29 kg/m3 | viscosity (394 kPa, x2 = 0.2615): 0.01581 ± 0.00052 mPa·s | mass density (394 kPa, x2 = 0.2615): 11.13 ± 0.29 kg/m3 | viscosity (642 kPa, x2 = 0.5169): 0.01639 ± 0.00054 mPa·s | mass density (642 kPa, x2 = 0.5169): 17.67 ± 0.29 kg/m3 | viscosity (685.5 kPa, x2 = 0.7502): 0.01697 ± 0.00055 mPa·s | mass density (685.5 kPa, x2 = 0.7502): 18.14 ± 0.29 kg/m3 | viscosity (686.5 kPa, x2 = 0.2615): 0.01588 ± 0.00052 mPa·s | mass density (686.5 kPa, x2 = 0.2615): 19.8 ± 0.29 kg/m3 | viscosity (935.8 kPa, x2 = 0.5169): 0.01646 ± 0.00054 mPa·s | mass density (935.8 kPa, x2 = 0.5169): 26.24 ± 0.29 kg/m3 | viscosity (978.6 kPa, x2 = 0.2615): 0.01594 ± 0.00053 mPa·s | mass density (978.6 kPa, x2 = 0.2615): 28.81 ± 0.29 kg/m3 | viscosity (1026 kPa, x2 = 0.7502): 0.01702 ± 0.00055 mPa·s | mass density (1026 kPa, x2 = 0.7502): 27.65 ± 0.29 kg/m3 | viscosity (1230 kPa, x2 = 0.5169): 0.01657 ± 0.00054 mPa·s | mass density (1230 kPa, x2 = 0.5169): 35.16 ± 0.3 kg/m3 | viscosity (1273 kPa, x2 = 0.2615): 0.01604 ± 0.00053 mPa·s | mass density (1273 kPa, x2 = 0.2615): 38.54 ± 0.3 kg/m3 | viscosity (1368 kPa, x2 = 0.7502): 0.01711 ± 0.00055 mPa·s | mass density (1368 kPa, x2 = 0.7502): 37.56 ± 0.3 kg/m3 | viscosity (1537 kPa, x2 = 0.5169): 0.01663 ± 0.00054 mPa·s | mass density (1537 kPa, x2 = 0.5169): 44.54 ± 0.3 kg/m3 | viscosity (1569 kPa, x2 = 0.2615): 0.01618 ± 0.00053 mPa·s | mass density (1569 kPa, x2 = 0.2615): 48.6 ± 0.3 kg/m3 | viscosity (1706 kPa, x2 = 0.7502): 0.01724 ± 0.00056 mPa·s | mass density (1706 kPa, x2 = 0.7502): 47.76 ± 0.3 kg/m3 | viscosity (1832 kPa, x2 = 0.5169): 0.01677 ± 0.00054 mPa·s | mass density (1832 kPa, x2 = 0.5169): 54.69 ± 0.3 kg/m3 | viscosity (1878 kPa, x2 = 0.2615): 0.01632 ± 0.00053 mPa·s | mass density (1878 kPa, x2 = 0.2615): 59.81 ± 0.3 kg/m3 | viscosity (2055 kPa, x2 = 0.7502): 0.01731 ± 0.00056 mPa·s | mass density (2055 kPa, x2 = 0.7502): 58.73 ± 0.3 kg/m3 | viscosity (2158 kPa, x2 = 0.2615): 0.0165 ± 0.00054 mPa·s | viscosity (2158 kPa, x2 = 0.5169): 0.01694 ± 0.00055 mPa·s | mass density (2158 kPa, x2 = 0.2615): 70.63 ± 0.3 kg/m3 | mass density (2158 kPa, x2 = 0.5169): 65.98 ± 0.3 kg/m3 | viscosity (2415 kPa, x2 = 0.7502): 0.0175 ± 0.00056 mPa·s | mass density (2415 kPa, x2 = 0.7502): 70.79 ± 0.3 kg/m3 | viscosity (2436 kPa, x2 = 0.2615): 0.01671 ± 0.00054 mPa·s | mass density (2436 kPa, x2 = 0.2615): 81.74 ± 0.31 kg/m3 | viscosity (2444 kPa, x2 = 0.5169): 0.01711 ± 0.00055 mPa·s | mass density (2444 kPa, x2 = 0.5169): 76.64 ± 0.31 kg/m3 | viscosity (2719 kPa, x2 = 0.7502): 0.01769 ± 0.00057 mPa·s | mass density (2719 kPa, x2 = 0.7502): 81.34 ± 0.31 kg/m3 | viscosity (2740 kPa, x2 = 0.5169): 0.01736 ± 0.00056 mPa·s | mass density (2740 kPa, x2 = 0.5169): 88.1 ± 0.31 kg/m3 | viscosity (2797 kPa, x2 = 0.2615): 0.01703 ± 0.00055 mPa·s | mass density (2797 kPa, x2 = 0.2615): 98.1 ± 0.31 kg/m3 | viscosity (3055 kPa, x2 = 0.5169): 0.01765 ± 0.00057 mPa·s | mass density (3055 kPa, x2 = 0.5169): 101.2 ± 0.3 kg/m3 | viscosity (3152 kPa, x2 = 0.2615): 0.01743 ± 0.00056 mPa·s | mass density (3152 kPa, x2 = 0.2615): 115.5 ± 0.3 kg/m3 | viscosity (3159 kPa, x2 = 0.7502): 0.01797 ± 0.00057 mPa·s | mass density (3159 kPa, x2 = 0.7502): 97.7 ± 0.31 kg/m3 | viscosity (3389 kPa, x2 = 0.5169): 0.01791 ± 0.00057 mPa·s | mass density (3389 kPa, x2 = 0.5169): 116.1 ± 0.3 kg/m3 | viscosity (3440 kPa, x2 = 0.2615): 0.01785 ± 0.00057 mPa·s | mass density (3440 kPa, x2 = 0.2615): 131.6 ± 0.3 kg/m3 | viscosity (3481 kPa, x2 = 0.7502): 0.01829 ± 0.00058 mPa·s | mass density (3481 kPa, x2 = 0.7502): 110.3 ± 0.3 kg/m3 | viscosity (3680 kPa, x2 = 0.2615): 0.01822 ± 0.00058 mPa·s | mass density (3680 kPa, x2 = 0.2615): 145.8 ± 0.3 kg/m3 | viscosity (3703 kPa, x2 = 0.5169): 0.0183 ± 0.00058 mPa·s | mass density (3703 kPa, x2 = 0.5169): 131.2 ± 0.3 kg/m3 | viscosity (3855 kPa, x2 = 0.7502): 0.01863 ± 0.00059 mPa·s | mass density (3855 kPa, x2 = 0.7502): 126.4 ± 0.3 kg/m3 | viscosity (3921 kPa, x2 = 0.2615): 0.01868 ± 0.00059 mPa·s | mass density (3921 kPa, x2 = 0.2615): 160.9 ± 0.3 kg/m3 | viscosity (3992 kPa, x2 = 0.5169): 0.01874 ± 0.00059 mPa·s | mass density (3992 kPa, x2 = 0.5169): 146.2 ± 0.3 kg/m3 | viscosity (4203 kPa, x2 = 0.7502): 0.01894 ± 0.0006 mPa·s | mass density (4203 kPa, x2 = 0.7502): 142 ± 0.3 kg/m3 | viscosity (4227 kPa, x2 = 0.2615): 0.01939 ± 0.00061 mPa·s | mass density (4227 kPa, x2 = 0.2615): 184.1 ± 0.4 kg/m3 | viscosity (4325 kPa, x2 = 0.5169): 0.01926 ± 0.0006 mPa·s | mass density (4325 kPa, x2 = 0.5169): 165.2 ± 0.3 kg/m3 | viscosity (4504 kPa, x2 = 0.2615): 0.02023 ± 0.00063 mPa·s | mass density (4504 kPa, x2 = 0.2615): 207.1 ± 0.4 kg/m3 | viscosity (4560 kPa, x2 = 0.7502): 0.01947 ± 0.00061 mPa·s | mass density (4560 kPa, x2 = 0.7502): 159.4 ± 0.3 kg/m3 | viscosity (4634 kPa, x2 = 0.5169): 0.01988 ± 0.00062 mPa·s | mass density (4634 kPa, x2 = 0.5169): 184.7 ± 0.3 kg/m3 | viscosity (4740 kPa, x2 = 0.2615): 0.0212 ± 0.00065 mPa·s | mass density (4740 kPa, x2 = 0.2615): 230.5 ± 0.4 kg/m3 | viscosity (4895 kPa, x2 = 0.5169): 0.02048 ± 0.00063 mPa·s | mass density (4895 kPa, x2 = 0.5169): 203.4 ± 0.4 kg/m3 | viscosity (4897 kPa, x2 = 0.7502): 0.01997 ± 0.00062 mPa·s | mass density (4897 kPa, x2 = 0.7502): 176.4 ± 0.3 kg/m3 | viscosity (4956 kPa, x2 = 0.2615): 0.0222 ± 0.00067 mPa·s | mass density (4956 kPa, x2 = 0.2615): 254.1 ± 0.4 kg/m3 | viscosity (5173 kPa, x2 = 0.5169): 0.02124 ± 0.00065 mPa·s | mass density (5173 kPa, x2 = 0.5169): 223.6 ± 0.4 kg/m3 | viscosity (5183 kPa, x2 = 0.2615): 0.02361 ± 0.0007 mPa·s | mass density (5183 kPa, x2 = 0.2615): 285.1 ± 0.4 kg/m3 | viscosity (5286 kPa, x2 = 0.2615): 0.02439 ± 0.00072 mPa·s | mass density (5286 kPa, x2 = 0.2615): 294.5 ± 0.4 kg/m3 | viscosity (5301 kPa, x2 = 0.7502): 0.02057 ± 0.00063 mPa·s | mass density (5301 kPa, x2 = 0.7502): 200.1 ± 0.3 kg/m3 | viscosity (5380 kPa, x2 = 0.5169): 0.02187 ± 0.00066 mPa·s | mass density (5380 kPa, x2 = 0.5169): 240.7 ± 0.4 kg/m3 | viscosity (5605 kPa, x2 = 0.7502): 0.02121 ± 0.00065 mPa·s | mass density (5605 kPa, x2 = 0.7502): 219.3 ± 0.4 kg/m3 | viscosity (5612 kPa, x2 = 0.5169): 0.02295 ± 0.00069 mPa·s | mass density (5612 kPa, x2 = 0.5169): 261.9 ± 0.4 kg/m3 | viscosity (5795 kPa, x2 = 0.5169): 0.02357 ± 0.0007 mPa·s | mass density (5795 kPa, x2 = 0.5169): 280.3 ± 0.4 kg/m3 | viscosity (5936 kPa, x2 = 0.7502): 0.02202 ± 0.00067 mPa·s | mass density (5936 kPa, x2 = 0.7502): 242.2 ± 0.4 kg/m3 | viscosity (6270 kPa, x2 = 0.7502): 0.02299 ± 0.00069 mPa·s | mass density (6270 kPa, x2 = 0.7502): 267.2 ± 0.4 kg/m3
